# Structures can show the parent of a compound that is named as a salt. Where two headings read alike, the source gives them in different places.
# Assays:
# [1] = molecular target: T1, SARS-CoV-2 PLpro (nsp3 1564–1878) (Severe acute respiratory syndrome coronavirus 2, UniProt P0DTD1); experiment: biochemical; parameters: FRET-quenched peptide (Pro3) cleavage by PLpro, 10 min pre-incubation, slope over 20 min, normalised to no-compound control; details: high concentration screen, read-out: % of control remaining
# [2] = molecular target: T1, SARS-CoV-2 PLpro (nsp3 1564–1878); experiment: biochemical; parameters: FRET-quenched peptide (Pro3) cleavage by PLpro, 10 min pre-incubation, slope over 20 min, normalised to no-compound control; details: low concentration screen, read-out: % of control remaining
structure (smiles),measurement,setting,value
Cc1cc(-c2ccc(/N=N/c3ccc4c(S(=O)(=O)O)cc(S(=O)(=O)O)c(N)c4c3O)c(C)c2)ccc1/N=N/c1ccc2c(S(=O)(=O)O)cc(S(=O)(=O)O)c(N)c2c1O [Evans Blue],remaining activity at 3.75 µM,[1]; Well no.=8652,92.3%
same,remaining activity at 1.25 µM,[2]; Well no.=8652,99.2%
O=c1cc(-c2ccccc2)oc2cc(O)ccc12 [7-Hydroxyflavone],remaining activity at 3.75 µM,[1]; Well no.=3293,103%
same,remaining activity at 1.25 µM,[2]; Well no.=3293,97.8%
O=C1NC(=O)C(c2cn(CCCO)c3ncccc23)=C1c1cnccn1 [GSK-3b Inhibitor XI],remaining activity at 3.75 µM,[1]; Well no.=2470,102%
same,remaining activity at 1.25 µM,[2]; Well no.=2470,101%
CN1CCC2=C(C1)c1ccccc1Cc1ccccc12 [Setiptiline],remaining activity at 3.75 µM,[1]; Well no.=6857,94.5%
same,remaining activity at 1.25 µM,[2]; Well no.=6857,98.8%
CCC(=O)N1CCN(C(=O)c2ccccc2)CC1 [DM 235],remaining activity at 3.75 µM,[1]; Well no.=453,96%
same,remaining activity at 1.25 µM,[2]; Well no.=453,96.3%
CCCNCC(O)COc1ccccc1C(=O)CCc1ccccc1 (centres unmarked) [Propafenone hydrochloride],remaining activity at 3.75 µM,[1]; Well no.=956,101%
same,remaining activity at 1.25 µM,[2]; Well no.=956,101%
CN[C@H](CC(C)C)C(=O)N[C@H]1C(=O)N[C@@H](CC(N)=O)C(=O)N[C@H]2C(=O)N[C@H]3C(=O)N[C@H](C(=O)N[C@H](C(=O)O)c4cc(O)cc(O)c4-c4cc3ccc4O)[C@H](O)c3ccc(c(Cl)c3)Oc3cc2cc(c3O[C@@H]2O[C@H](CO)[C@@H](O)[C@H](O)[C@H]2O[C@H]2C[C@](C)(N)[C@H](O)[C@H](C)O2)Oc2ccc(cc2Cl)[C@H]1O [Vancomycin (hydrochloride)],remaining activity at 3.75 µM,[1]; Well no.=7882,98.3%
same,remaining activity at 1.25 µM,[2]; Well no.=7882,103%
CO[C@@]12[C@H](COC(N)=O)C3=C(C(=O)C(C)=C(N)C3=O)N1C[C@@H]1N[C@@H]12 [Mitomycin C],remaining activity at 3.75 µM,[1]; Well no.=1672,110%
same,remaining activity at 3.75 µM,[1]; Well no.=3563,100%
same,remaining activity at 3.75 µM,[1]; Well no.=7364,102%
same,remaining activity at 1.25 µM,[2]; Well no.=1672,110%
same,remaining activity at 1.25 µM,[2]; Well no.=3563,98.9%
same,remaining activity at 1.25 µM,[2]; Well no.=7364,98.5%
O=C(O)C(O)Cc1ccc(O)c(O)c1 (centres unmarked) [Sodium Danshensu],remaining activity at 3.75 µM,[1]; Well no.=4868,100%
same,remaining activity at 1.25 µM,[2]; Well no.=4868,100%
C[C@](N)(Cc1ccc(O)c(O)c1)C(=O)O [L-alpha-Methyl DOPA],remaining activity at 3.75 µM,[1]; Well no.=1039,98.3%
same,remaining activity at 1.25 µM,[2]; Well no.=1039,97.7%
CN1CCC(=C2c3ccccc3CC(=O)c3sccc32)CC1 [Ketotifen],remaining activity at 3.75 µM,[1]; Well no.=2056,109%
same,remaining activity at 1.25 µM,[2]; Well no.=2056,108%
Clc1cc(I)cc(Cl)c1NC1=NCCN1 [p-Iodoclonidine hydrochloride],remaining activity at 3.75 µM,[1]; Well no.=873,113%
same,remaining activity at 1.25 µM,[2]; Well no.=873,110%
Cc1c(O)cccc1C(=O)N[C@@H](CSc1ccccc1)[C@H](O)CN1C[C@H]2CCCC[C@H]2C[C@H]1C(=O)NC(C)(C)C [Nelfinavir mesylate],remaining activity at 3.75 µM,[1]; Well no.=2201,97.3%
same,remaining activity at 3.75 µM,[1]; Well no.=8156,103%
same,remaining activity at 1.25 µM,[2]; Well no.=2201,95.1%
same,remaining activity at 1.25 µM,[2]; Well no.=8156,102%
O=C(O)CN(CCN(CC(=O)O)CC(=O)O)CCN(CC(=O)O)CC(=O)O [Diethylenetriaminepentaacetic acid],remaining activity at 3.75 µM,[1]; Well no.=532,97.9%
same,remaining activity at 1.25 µM,[2]; Well no.=532,100%
CCOC(=O)[C@H](CCc1ccccc1)N[C@H]1CS[C@H](c2cccs2)CN(CC(=O)O)C1=O [Temocapril (hydrochloride)],remaining activity at 3.75 µM,[1]; Well no.=8218,99.9%
same,remaining activity at 1.25 µM,[2]; Well no.=8218,103%
C[C@H](NC(=O)[C@@H](O)c1cc(F)cc(F)c1)C(=O)N[C@@H]1C(=O)N(C)c2ccccc2-c2ccccc21 [LY411575],remaining activity at 3.75 µM,[1]; Well no.=4689,101%
same,remaining activity at 1.25 µM,[2]; Well no.=4689,102%
CN1CCc2cc(Cl)c(O)cc2[C@@H](c2ccccc2)C1 [R(+)-SCH-23390 hydrochloride],remaining activity at 3.75 µM,[1]; Well no.=638,98%
same,remaining activity at 1.25 µM,[2]; Well no.=638,96.8%
C/C=C/C[C@@H](C)C(=O)[C@H]1C(=O)N[C@@H](C(C)C)C(=O)N(C)CC(=O)N(C)[C@@H](CC(C)C)C(=O)N[C@@H](C(C)C)C(=O)N(C)[C@@H](CC(C)C)C(=O)N[C@@H](C)C(=O)N[C@H](C)C(=O)N(C)[C@@H](CC(C)C)C(=O)N(C)[C@@H](CC(C)C)C(=O)N(C)[C@@H](C(C)C)C(=O)N1C [Valspodar],remaining activity at 3.75 µM,[1]; Well no.=8226,94.7%
same,remaining activity at 1.25 µM,[2]; Well no.=8226,94.7%
N[C@@H](COP(=O)(O)O)C(=O)O [O-Phospho-L-serine],remaining activity at 3.75 µM,[1]; Well no.=806,95.7%
same,remaining activity at 3.75 µM,[1]; Well no.=6867,99.4%
same,remaining activity at 3.75 µM,[1]; Well no.=6956,101%
same,remaining activity at 1.25 µM,[2]; Well no.=806,98%
same,remaining activity at 1.25 µM,[2]; Well no.=6867,99.1%
same,remaining activity at 1.25 µM,[2]; Well no.=6956,101%
"CCCN(CCC)CCc1c[nH]c2ccc(C(N)=O)cc12 [N,N-Dipropyl-5-carboxamidotryptamine maleate]",remaining activity at 3.75 µM,[1]; Well no.=402,97.1%
same,remaining activity at 1.25 µM,[2]; Well no.=402,95.4%
O=C1CN(/N=C/c2ccc(-c3ccc([N+](=O)[O-])cc3)o2)C(=O)N1 [Dantrolene sodium salt],remaining activity at 3.75 µM,[1]; Well no.=5847,101%
same,remaining activity at 1.25 µM,[2]; Well no.=5847,104%
OC(CCN1CCCCC1)(c1ccccc1)C1CCCCC1 (centres unmarked) [Trihexyphenidyl (hydrochloride)],remaining activity at 3.75 µM,[1]; Well no.=6375,105%
same,remaining activity at 1.25 µM,[2]; Well no.=6375,105%
CCCOc1ccc2[nH]c(NC(=O)OC)nc2c1 [Oxibendazole],remaining activity at 3.75 µM,[1]; Well no.=2061,98.3%
same,remaining activity at 1.25 µM,[2]; Well no.=2061,99%
COc1ccc(-n2nc(C(N)=O)c3c2C(=O)N(c2ccc(N4CCCCC4=O)cc2)CC3)cc1 [Apixaban],remaining activity at 3.75 µM,[1]; Well no.=5331,100%
same,remaining activity at 1.25 µM,[2]; Well no.=5331,99.7%
"CCCCCC#CC[C@@H](O)/C=C/C=C/C=C\[C@@H](O)CCCC(=O)O [14,15-Dehydroleukotriene B4]",remaining activity at 3.75 µM,[1]; Well no.=4518,94.4%
same,remaining activity at 1.25 µM,[2]; Well no.=4518,97.4%
"O=[N+]([O-])c1ccc(O[C@@H]2O[C@H](CO)[C@@H](O)[C@H](O)[C@H]2F)c([N+](=O)[O-])c1 [2,4-Dinitrophenyl 2-fluoro-2-deoxy-beta-D-glucopyranoside]",remaining activity at 3.75 µM,[1]; Well no.=637,101%
same,remaining activity at 1.25 µM,[2]; Well no.=637,100%
CC[C@@]1([C@@H]2O[C@@H]([C@H]3O[C@@](O)(CO)[C@H](C)C[C@@H]3C)C[C@@H]2C)CC[C@H]([C@]2(C)CC[C@]3(C[C@H](O)[C@@H](C)[C@@H]([C@@H](C)[C@@H](OC)[C@H](C)C(=O)O)O3)O2)O1 [Monensin],remaining activity at 3.75 µM,[1]; Well no.=3413,99.5%
same,remaining activity at 1.25 µM,[2]; Well no.=3413,94.8%
c1coc(CNc2ncnc3[nH]cnc23)c1 [Kinetin],remaining activity at 3.75 µM,[1]; Well no.=3358,97.3%
same,remaining activity at 1.25 µM,[2]; Well no.=3358,95.6%
Cc1sc(C)c(C(=O)NC2(c3ccc(C(=O)O)cc3)CC2)c1Cc1ccc(C(F)(F)F)cc1 [MK-2894],remaining activity at 3.75 µM,[1]; Well no.=7101,90.7%
same,remaining activity at 1.25 µM,[2]; Well no.=7101,94.3%

# Source: paper PMC8286840, “Identifying SARS-CoV-2 antiviral compounds by screening for small molecule inhibitors of Nsp3 papain-like protease” (Biochemical Journal, 2021)
